# Assay results as given in patent US10174067B2, “Type of cytidine derivative and application thereof” (priority 2014, dated 2019).
# Marks after values point to notes of the source that are not given here.
# How the values were obtained:
# ICR mice = assay: in vivo; settings: female ICR mice; single-dose ip
# Description: This experiment was to investigate the toxic effects of single-dose intraperitoneal administration on ICR mice and determine the maximum tolerated dose (MTD) of each subject. Maximum tolerated dose (MTD) refers to the dose that may not cause an animal to die, may not cause the animal to suffer weight loss exceeding 10% (compared with Day 0), or may not produce significant side effects.
# (§1) The corresponding amount of test substance was taken in a 5 mL glass tube and dissolved in ethanol with a 5 mm magnetic stirrer for stirring. After dissolving completely, Cremophor EL was added with continuous stirring. The marked amount of saline was added and mixed evenly before use. The volume ratio of ethanol, Cremophor EL, and physiological saline was 5:5:90.
# Varieties and lines: ICR mice; level: SPF; sex: female.
# Method of administration: ip. The dose was reduced in case of animal death, till an animal survived; the dose was increased in case of no animal death; the test was ended when the animals survived normally at the given high dose. Finally, the MTD of the mice on the test substances was determined according to the test results. The animals were observed continuously for 7 days after acute administration.
# During the experiment, all animals were under detailed and continuous clinical observation for […], twice a day (10:00 am, 16:00 pm) after administration. The observation included but not limited to: skin, hair, ear, nose, mouth, chest, abdomen, external genitalia, limbs and feet, respiratory and circulatory system, autonomic effects (such as salivation), nervous system (such as tremor, convulsions, stress response and abnormal behavior).
# The body of animals was weighed before administration, and then weighed and recorded at the same time each day.
# The observation results, animal body weight, and animal survival after one week of administration were recorded in detail every day.
# [1] = tested on: HCT-116 colon cancer xenografts; assay: Tumor growth inhibition of HCT-116 colon cancer xenografts in tumor-bearing nude mice (tumor volume, TGI %, RTV, T/C %); type: in vivo, Balb/c Nude mice
# Description: 4.1 Tumor cells: colon cancer HCT-116 cells, purchased from the Institute of Cell Biology, Chinese Academy of Sciences. The cells were incubated by F-12 medium (containing 10% FBS) in carbon dioxide incubator at 37° C. and in saturated humidity, with 5% CO2 and 95% air in volume fraction. Before inoculation, the cells at logarithmic phase were taken, and digested with 0.25% trypsin, washed once with PBS and resuspended in PBS for counting. The cells were resuspended in serum-free medium and adjusted to about 3×10^7 cell/mL.
# The grouping is as follows:
# The formations of tumor at the inoculation site of each group of nude mice were observed. The diameter of tumor nodule (D) was measured three times a week with round hole ruler, and the volume of tumor nodule (V) was calculated according to the following formula: […].
# Anti-tumor activity was evaluated by tumor growth inhibition rate TGI (%) and relative tumor proliferation rate T/C (%).
# The relative tumor volume (RTV) was calculated as: RTV=Vt/V0, where V0 was the tumor volume when they were grouped and administered, and Vt was the tumor volume at the time of measurement.
# The relative proliferation rate T/C (%) was calculated as: […].
# TRTV: RTV of the treatment group; CRTV: RTV of the control group.
# P<0.05 was considered as significant difference.
# [2] = Description: To determine the growth inhibition effect and toxicity of the cytidine derivative samples of the present invention on the transplanted tumor of nude mice bearing colon cancer HCT-116.
# as §1
# Varieties and lines; Balb/c Nude mice; level: SPF; sex: female.
# 4.2 Animal inoculation and grouping: Each nude mouse was inoculated subcutaneously with 0.1 mL of cell suspension (3×10^6 cell/mouse) at right side of hind limb in a sterile stale. When the tumor grew to about 60-150 mm^3, the nude mice with similar tumor volume and desirable shape were selected (it would be better to select single spherical shape, no irregular shape or multiple tumors grouped together) for grouping, 6 mice a group. The grouping is as follows:
# The control group, namely the model control group, was injected with a mixture of ethanol, Cremophor EL, and saline (5:5:90).
# Those mice were weighed three times a week.
# All clinical symptoms of each animal should be recorded at the beginning of the test and during the test. The observations should be made at the same time each day.
# An animal would be killed by CO2 when its weight loss was more than 20%, when it was about to die, or when its tumor volume exceeded 2800 mm^3. The tumor was separated and weighed, and the animal was autopsied and observed to evaluate and record whether there were pathological changes in the organs.
# The data were expressed as Mean±SEM unless specially provided; Non-pairing T test was performed for the data between the two groups. P<0.05 was considered as significant difference.
# [3] = Day 0, G3-G9 groups, single IP dose, Mean±SEM
# [4] = Day 4, G3-G9 groups, single IP dose, Mean±SEM
# [5] = Day 6, G3-G9 groups, single IP dose, Mean±SEM
# [6] = Day 8, G3-G9 groups, single IP dose, Mean±SEM
# [7] = Day 11, G3-G9 groups, single IP dose, Mean±SEM
# [8] = Day 13, G3-G9 groups, single IP dose, Mean±SEM
# [9] = Day 15, G3-G9 groups, single IP dose, Mean±SEM
# [10] = Day 18, G3-G9 groups, single IP dose, Mean±SEM
# [11] = Day 20, G3-G9 groups, single IP dose, Mean±SEM
# [12] = Day 22, G3-G9 groups, single IP dose, Mean±SEM
compound,measurement,setting,value
"O=C(Nc1ccn([C@@H]2O[C@H](CO)[C@@H](O)C2(F)F)c(=O)n1)OCc1ccc([N+](=O)[O-])cc1 [Compound G5, 4-N-(4-nitrocarboxybenzyl)-2′-deoxy-2′,2′-difluorocytidine]","dose that could be tolerated (maximum tolerated dose, MTD)",ICR mice,300 mg/kg
same,Day 0 (RTV),[1]; [3],1.00 ± 0.00
same,"Tumor volume, Day 0",[1]; [3],65.68 ± 20.50** mm^3
same,Day 4 (TGI %),"[1]; Day 4, G3-G9 groups, single IP dose",77.08%
same,Day 4 (RTV),[1]; [4],0.89 ± 0.17
same,"Tumor volume, Day 4",[1]; [4],61.06 ± 22.28** mm^3
same,Day 6 (TGI %),"[1]; Day 6, G3-G9 groups, single IP dose",90.77%
same,Day 6 (RTV),[1]; [5],0.62 ± 0.08
same,"Tumor volume, Day 6",[1]; [5],39.01 ± 12.19** mm^3
same,Day 8 (TGI %),"[1]; Day 8, G3-G9 groups, single IP dose",93.03%
same,Day 8 (RTV),[1]; [6],0.53 ± 0.06
same,"Tumor volume, Day 8",[1]; [6],36.63 ± 13.03** mm^3
same,tumor inhibition effect,[1]; Day 8 to Day 13 after single-dose intraperitoneal administration,good tumor inhibition effect
same,Day 11 (TGI %),"[1]; Day 11, G3-G9 groups, single IP dose",94.46%
same,Day 11 (RTV),[1]; [7],0.60 ± 0.08
same,"Tumor volume, Day 11",[1]; [7],44.57 ± 18.01** mm^3
same,Day 13 (TGI %),"[1]; Day 13, G3-G9 groups, single IP dose",93.46%
same,Day 13 (RTV),[1]; [8],1.04 ± 0.14
same,"Tumor volume, Day 13",[1]; [8],75.90 ± 28.06** mm^3
same,Day 15 (TGI %),"[1]; Day 15, G3-G9 groups, single IP dose",90.78%
same,Day 15 (RTV),[1]; [9],1.91 ± 0.35
same,"Tumor volume, Day 15",[1]; [9],130.29 ± 45.17** mm^3
same,Day 18 (TGI %),"[1]; Day 18, G3-G9 groups, single IP dose",87.26%
same,Day 18 (RTV),[1]; [10],3.76 ± 0.64
same,"Tumor volume, Day 18",[1]; [10],235.85 ± 70.86** mm^3
same,Day 20 (TGI %),"[1]; Day 20, G3-G9 groups, single IP dose",80.09%
same,Day 20 (RTV),[1]; [11],8.51 ± 3.10
same,"Tumor volume, Day 20",[1]; [11],421.94 ± 104.20** mm^3
same,Day 22 (TGI %),"[1]; Day 22, G3-G9 groups, single IP dose",74.55%
same,Day 22 (RTV),[1]; [12],13.37 ± 4.65
same,"Tumor volume, Day 22",[1]; [12],665.68 ± 158.57** mm^3
same,T/C % on Day 22,"[1]; Day 22, G4 350 mg/kg, G5 325 mg/kg, G7 250 mg/kg, single IP",68.77%
same,relative tumor volume compared with the model control group,"[1]; G4 and G5 Day 4 to Day 18, G7 Day 4 to Day 15 (p<0.05-0.01), G9 only Day 4 (p<0.05)",reduced significantly
same,maximum value of TGI %,"[1]; day of maximum: G3 Day 8, G4 Day 11, G5 Day 11, G9 Day 4, G7 Day 8, single IP",94.46%
same,minimum value of T/C %,"[1]; day of minimum: G4 Day 13, G5 Day 11, G7 Day 8, single IP",10.01%
same,"Weight change rate, Day 0",[2]; [3],0.00 ± 0.00%
same,"Weight of mice, Day 0",[2]; [3],21.03 ± 0.47 g
same,weights of animals on Day 4 after administration,"[2]; Day 4 (G7: Day 4 and Day 6), p<0.05",significantly reduced
same,"Weight change rate, Day 4",[2]; [4],−8.40 ± 2.65 %
same,"Weight of mice, Day 4",[2]; [4],19.30 ± 0.85 g
same,weight loss rate on Day 4 after administration,"[2]; Day 4, G4 350 mg/kg, G5 325 mg/kg, G7 250 mg/kg, single IP",less than 10%
same,"Weight change rate, Day 6",[2]; [5],−1.16 ± 2.31%
same,"Weight of mice, Day 6",[2]; [5],20.82 ± 0.81 g
same,"Weight change rate, Day 8",[2]; [6],2.81 ± 1.37%
same,"Weight of mice, Day 8",[2]; [6],21.63 ± 0.62 g
same,"Weight change rate, Day 11",[2]; [7],4.96 ± 1.42%
same,"Weight of mice, Day 11",[2]; [7],22.07 ± 0.49 g
same,"Weight change rate, Day 13",[2]; [8],7.84 ± 1.39 %
same,"Weight of mice, Day 13",[2]; [8],22.67 ± 0.45 g
same,"Weight change rate, Day 15",[2]; [9],6.31 ± 1.39 %
same,"Weight of mice, Day 15",[2]; [9],22.35 ± 0.49 g
same,"Weight change rate, Day 18",[2]; [10],8.28 ± 1.61 %
same,"Weight of mice, Day 18",[2]; [10],22.75 ± 0.38 g
same,"Weight change rate, Day 20",[2]; [11],9.18 ± 1.65 %
same,"Weight of mice, Day 20",[2]; [11],22.95 ± 0.50 g
same,"Weight change rate, Day 22",[2]; [12],10.41 ± 2.03%
same,"Weight of mice, Day 22",[2]; [12],23.20 ± 0.47 g
same,Day 22 Mortality,"[2]; Day 22, single IP dose (mg/kg)",0%
same,body weight compared with model control group,"[2]; G4 Day 18 to Day 20 (p<0.05), G5 Day 13 to Day 20 (p<0.05~0.01)",significantly increased
same,clinical symptoms,"[2]; after single IP dose, compared with model control group",no significant differences in clinical symptoms
